Test results reported in patent US20050009759A1 (priority 2001, published 2005).
Values after ≈ are worked out from the molar mass of the structure shown. Like-named read-outs stand apart in the source and are kept apart here.

Legend:
Solubility in water = type: physicochemical; conditions: for solubility: water, in water / aqueous solvents
L1210 cells = assay: In vitro cytotoxicity, microculture tetrazolium assay (MTA); type: cell-based; conditions: Mus musculus
Protocol: Cytotoxicity was tested against L1210 (mouse leukemic cell line) cells using the MTA assay.
L1210 cells were cultivated in RPMI 1640 medium (Gibco) supplemented with 10% fetal calf serum, 2 mM L-glutaine, 100 units/mL penicillin, 100 µg/mL streptomycin, and 10 mM HEPES buffer (pH=7.4). Cytotoxicity was measured by the microculture tetrazolium assay (MTA). Cells were exposed to graded concentrations of drug (nine serial dilutions in triplicate) for 48 h. Results are expressed as IC50, the concentration which reduced by 50% the optical density of treated cells with respect to the optical density of untreated controls.

[1] = Stability in phosphate buffer solution followed by HPLC; type: physicochemical; conditions: phosphate buffer pH 7 (0.02 M, pH 7.2), 37° C.
Protocol: The stability of 1a was followed by HPLC measurements in buffer solution at pH 7 for 24 hours. More than 90% of the prodrug was recovered after that time, meaning that the prodrug 1a is stable in vitro.
(§1) Good separation in a short delay was obtained with a reversed-phase Phenyl analytical column (Spherisorb 250×4,6) using isocratic conditions (1 mL/min) of 60% phosphate buffer (0.02 M, pH 3) and 40% acetonitrile with UV detection at 254 nm. Using these conditions the retention time of etoposide, prodrug, and cyclized spacer were 4.9, 3.4, 5.8. min., respectively.
A solution of […] of prodrug 1a in 0.02 M phosphate buffer (pH 7.2) was incubated for various times at 37° C. Aliquots (100 μL) were taken at various times and analyzed by HPLC after dilution with eluent (300 μL).

[2] = molecular target: E. coli β-D-glucuronidase (Escherichia coli, UniProt P05804); assay: Enzymatic cleavage by E. coli β-D-glucuronidase (kinetics of drug release, HPLC); type: biochemical; conditions: E. coli β-D-glucuronidase in phosphate buffer; 500 μg/mL prodrug, 20 μg/mL E. coli β-D-glucuronidase, phosphate buffer pH 7.2, 37° C.
Chain of E. coli β-D-glucuronidase (P05804 whole entry): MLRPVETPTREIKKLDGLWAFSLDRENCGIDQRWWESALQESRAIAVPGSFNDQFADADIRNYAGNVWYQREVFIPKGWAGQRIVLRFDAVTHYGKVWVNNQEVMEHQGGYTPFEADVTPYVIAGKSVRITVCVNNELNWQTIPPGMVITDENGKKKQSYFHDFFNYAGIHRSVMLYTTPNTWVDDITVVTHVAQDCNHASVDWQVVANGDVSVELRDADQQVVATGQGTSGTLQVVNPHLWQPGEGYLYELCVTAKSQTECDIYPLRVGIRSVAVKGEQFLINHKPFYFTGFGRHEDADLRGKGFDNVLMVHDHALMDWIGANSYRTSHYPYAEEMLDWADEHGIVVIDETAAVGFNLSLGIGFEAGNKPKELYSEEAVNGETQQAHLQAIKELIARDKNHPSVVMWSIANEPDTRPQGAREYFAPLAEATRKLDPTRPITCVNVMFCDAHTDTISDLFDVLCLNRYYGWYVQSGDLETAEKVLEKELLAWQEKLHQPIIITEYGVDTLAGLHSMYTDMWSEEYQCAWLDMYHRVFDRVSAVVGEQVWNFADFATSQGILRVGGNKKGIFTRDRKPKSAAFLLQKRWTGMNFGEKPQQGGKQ
Protocol: Prodrug 1a (500 μg/mp) was incubated with E. coli β-D-glucuronidase (20 μ/mL). Aliquot samples were analysed by IPLC at different times (FIG. 1: Enzymatic cleavage of prodrug 1a).
as §1
Hydrolysis was investigated by incubating a solution of 500 μg/mL of prodrug 3 and 20 μg/mL of E. coli β-D-glucuronidase in 0.02 M phosphate buffer (pH 7.2) at 37° C. Aliquots (100 μl) were taken at various times and analyzed by HPLC after dilution with 300 μl of eluent.

SMILES	fold more soluble than the corresponding drug (Solubility in water; in water, comparable conditions, versus etoposide)	solubility (Solubility in water) [mg/mL]	IC50 (L1210 cells; L1210, 48 h) [nM]	IC50 (L1210 cells; L1210, read-out: IC50 after hydrolysis by β-glucuronidase) [nM]	prodrug recovered/remaining after 24 hours [1]	half-life at 500 μg/mL [2] [min]	melting point [°C]	IC50 (L1210 cells; L1210 cell line, 48 h exposure, without enzyme, read-out: IC50) [nM]
COc1cc([C@@H]2c3cc4c(cc3C(OC3OC5COC(C)O[C@H]5C(O)[C@@H]3O)[C@H]3COC(=O)[C@H]23)OCO4)cc(OC)c1OC(=O)N(C)c1cc([N+](=O)[O-])ccc1O[C@@H]1OC(C(=O)O)[C@@H](O)C(O)C1O (stereo partly drawn) [prodrug 1a]	approximately 200 fold	~20 (≈ 20.9 mM)	50200	930	More than 90%	< 25	186	–
COc1cc([C@@H]2c3cc4c(cc3[C@@H](O[C@@H]3O[C@@H]5CO[C@@H](C)O[C@H]5[C@H](O)[C@H]3O)[C@H]3COC(=O)[C@H]23)OCO4)cc(OC)c1O [etoposide, reference compound]	–	0.1 (≈ 0.17 mM)	–	–	–	–	–	834
